The text below walks through data of EPA's ToxValDB 9.5 (doi:10.2903/j.efsa.2006.86r).

Converted amounts (≈) assume the structure as drawn.

One data set relates to Apis mellifera. The conditions noted are these: acute, mortality.
The subject of the next data set is Canidae. Particulars: chronic; duration: 1 years; oral; Dog Other; clinical chemistry.
A further data set deals with Coturnix japonica. The conditions noted are these: acute; oral; mortality.
Another data set has as its system Daphnia magna. Particulars: chronic/long-term; duration: 21 days.
The test system of a further data set is Aphidius rhopalosiphi. Nature of the data set: LR50; higher = less toxic. The conditions noted are these: acute; duration: 48 hours; reproduction.
A further data set concerns Typhlodromus pyri. Description: LR50; higher = less toxic. The conditions noted are these: acute; duration: 48 hours; reproduction.

As for `CCS(=O)CCSP(=O)(OC)OC` (stereo unspecified) [Oxydemeton-methyl], the NOEC in the data set on Anas platyrhynchos (reproductive) was 7.65 mg/kg-day; with Colinus virginianus (reproduction developmental) it was 0.97 mg/kg-day; in the data set with Daphnia magna it was 0.027 mg/L; with Oncorhynchus mykiss (chronic/long-term, duration: 98 days), 1.8 mg/L; in the data set with Tagia sp. (chronic/long-term, duration: 56 days, reproduction), 412 g/ha. Moreover, the NOEL in the data set on Anas platyrhynchos (short-term, oral, feed, mortality) is 119 mg/kg-day; with Colinus virginianus (short-term, oral, diet, mortality), 56.6 mg/kg-day. In addition, the LD50 was 0.2 µg/piece in the data set with Apis mellifera (duration: 48 hours, oral, unspecified); 0.175 µg/piece in the data set on Apis mellifera (duration: 72 hours, dermal); 34 mg/kg in the data set on Colinus virginianus (acute, oral, M, mortality); 29 mg/kg with Coturnix japonica; 48 mg/kg in the data set on Rattus norvegicus (acute, oral, mortality). In addition, the NOAEL was determined as 0.1 mg/kg-day with Canidae; 0.03 mg/kg-day in the data set with Rattus norvegicus (chronic, duration: 2 years, clinical chemistry); 0.15 mg/kg-day with Rattus norvegicus (reproduction developmental, M, reproduction); 0.15 mg/kg-day in the data set with Rattus norvegicus (short-term, duration: 14 days, oral, clinical chemistry); 0.1 mg/kg-day in the data set on Rattus norvegicus (subchronic, duration: 90 days, oral, clinical chemistry). Besides, the LC50 in the data set on Oncorhynchus mykiss (acute, duration: 96 hours, mortality) amounted to 17 µg/mL (≈ 69 µM); in the data set on Tagia sp. (acute, duration: 14 days, mortality) it was 115 mg/kg. For the same compound, the values for the LR50 in the data set on Aphidius rhopalosiphi and in the data set with Typhlodromus pyri were 42.5 g/ha and 143 g/ha, respectively.
